Reference: article PMC9180926, “Discovery of Novel 3-Hydroxyquinazoline-2,4(1H,3H)-Dione Derivatives: A Series of Metal Ion Chelators with Potent Anti-HCV Activities” (International Journal of Molecular Sciences, 2022)

Assays:
[1] = tested on: HCV 1b replicon cells (Huh-7.5.1); experiment: Anti-HCV assay, HCV 1b replicon cells with luciferase reporter; type: cell-based, hepatitis C virus (HCV) subtype 1b; conditions: Hepatitis C virus, HCV 1b replicon cells
[2] = Cytotoxicity assay (CCK-8) on replicon cells; type: cell-based; conditions: human, HCV 1b replicon cells (Huh-7.5.1); 50% cytotoxic concentration; CCK-8, HCV 1b replicon cells, 72 h
[3] = target: T1, C-terminal His-tagged NS5BΔ21 from HCV 1b subtype (Hepatitis C virus genotype 1b, UniProt Q913V3); experiment: Thermal shift assay with NS5B protein; type: binding
T1 construct: C-terminal His-tagged NS5BΔ21 from HCV 1b subtype; His tag (C); made in house
From the text: The stability of a protein system is enhanced after binding to its specific ligand, leading to an increase in the melting temperature (Tm). Taking advantage of this feature, the thermal shift assay was extensively used to assess the binding of small molecules to the protein targets. The metal ion chelators were thought to exert an anti-HCV effect by chelating with Mg^2+ in the catalytic center of NS5B [34, 36, 38]. […] C-terminal His-tagged NS5BΔ21 from HCV 1b subtype was used as the protein in the experiment. Compared with the blank control (DMSO), the fluorescence–temperature curves of the NS5B system in the presence of 21e (Figure 3A) and 21k (Figure 3B) at 50 μM, 100 μM, and 200 μM all shifted to the right of the axis. The Tm values of 21e and 21k increased in a concentration-dependent manner, presenting higher values than that of the blank control (Tm = 63.5 °C) at all tested concentrations.
C-terminal His-tagged NS5BΔ21 from HCV 1b subtype was expressed from pET28a HCR6 plasmid in our lab and dissolved in a Tris-HCl buffer (20 mm, pH 7.2) containing 150 mm NaCl. Then, 1 μL of corresponding concentration (1 mm, 2 mm, or 4 mm) of the test compound in DMSO or 1 μL DMSO alone was added to each well of a 96-well PCR plate (Shanghai Sangon Biotech Co., Ltd., Shanghai, China). Subsequently, 19 μL of pre-prepared PBS solution containing 10 mm MgCl2, 10× SYPRO® orange protein gel stain (Sigma-Aldrich, St. Louis, MO, USA), and 5 μM NS5B protein was added to each well and mixed. The final concentration of DMSO in each well was 5%. The PCR plate was covered with a high-permeable film, incubated at room temperature for 10 min, and then placed on the Applied Biosystems^TM 7500 Real-Time PCR System (Thermo Fisher Scientific, Waltham, MA, USA). The temperature was increased to 90 °C gradually, and the change curve of fluorescence intensity versus system temperature was recorded.

[4] = tested on: HCV 1b replicon cells (Huh-7.5.1); experiment: Anti-HCV assay, HCV 1b replicon cells with luciferase reporter; type: cell-based, hepatitis C virus (HCV) subtype 1b; conditions: Hepatitis C virus, Huh-7.5.1, 72 h, inhibitory rate at 5 μM

T1 sequence (Q913V3 2420-2989, stated change not applied): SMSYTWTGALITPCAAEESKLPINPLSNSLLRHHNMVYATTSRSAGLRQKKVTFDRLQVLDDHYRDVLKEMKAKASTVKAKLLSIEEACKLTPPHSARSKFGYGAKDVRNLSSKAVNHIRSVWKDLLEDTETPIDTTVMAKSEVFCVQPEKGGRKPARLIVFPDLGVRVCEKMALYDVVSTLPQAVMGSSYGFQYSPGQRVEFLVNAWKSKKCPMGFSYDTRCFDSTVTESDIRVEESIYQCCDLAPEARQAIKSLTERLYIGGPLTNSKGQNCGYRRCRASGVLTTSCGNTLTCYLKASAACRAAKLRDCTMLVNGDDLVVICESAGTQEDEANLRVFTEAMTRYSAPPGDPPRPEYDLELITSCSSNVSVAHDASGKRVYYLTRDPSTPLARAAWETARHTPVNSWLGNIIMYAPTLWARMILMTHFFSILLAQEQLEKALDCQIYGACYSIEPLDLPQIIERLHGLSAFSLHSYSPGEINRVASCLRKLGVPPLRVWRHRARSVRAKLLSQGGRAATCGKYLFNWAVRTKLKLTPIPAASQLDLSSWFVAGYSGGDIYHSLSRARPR

## O=c1[nH]c2cc(-c3ccccc3)ccc2c(=O)n1O [21e, 3-Hydroxy-7-phenylquinazoline-2,4(1H,3H)-dione]
[1]; Huh-7.5.1, 50% effective concentration, mean ± SD
  EC50: 3.2 ± 0.04 µM
[1]; Huh-7.5.1, 72 h, inhibitory rate at 10 μM, 72 h, read-out: HCV Inhibition 10 μM
  inhibition at 10 µM: 78.1%
[2]
  CC50 at 72 h: 5.4 ± 0.6 µM
[3]; compound 50 μM, Tm of compound group minus Tm of blank control, mean ± SD, three experiments
  ΔTm at 50 µM: 0.6 ± 0.15 °C
[3]; compound 100 μM, Tm of compound group minus Tm of blank control, mean ± SD, three experiments
  ΔTm at 100 µM: 0.85 ± 0.02 °C
[3]; compound 200 μM, Tm of compound group minus Tm of blank control, mean ± SD, three experiments
  ΔTm 200 μM: 1.5 ± 0.01 °C
[3]; in Figure 3, blank control Tm = 63.5 °C
  Tm of NS5B complexed with compound: 65.0 °C
[3]; read-out: ΔTm 200 μM, compound 200 μM, Tm of compound group minus Tm of blank control, mean ± SD, three experiments
  ΔTm at 200 µM: 1.6 °C
[4]
  inhibition at 5 µM: 39.5%
